Literature values, collected in patent publication US11135586B2, “Fluorinated pickering emulsion” (The Board of Trustees of the Leland Stanford Junior …, priority 2014, dated 2021).

- Time without leakage in drops stabilized by surfactants: at least 36 hours
SMILES: O=C1OC2(c3ccc(O)cc3Oc3cc(O)ccc32)c2ccccc21 [fluorescein]
